Reference: US4370416A (Kikkoman Corporation, priority 1980, dated 1983)

Tests used:
novel HCEH = assay: Inhibition of the novel HCEH; type: biochemical
HCEH = assay: Activity of HCEH on hydroxy-cinnamic acid ester substances and tannic acid (liquid chromatography); type: biochemical; settings: for Relative activity: HCEH on the substance as substrate, 0.1 M phosphate buffer pH 6.5, molar ratio of produced hydrolyzate; for Action and substrate specificity of the enzyme (hydrolysis of the ester linkage): qualitative
Protocol: Here, the activity of HCEH on various hydroxy-cinnamic acid ester substances and tannic acid was determined by measuring the quantity of their hydrolysis by means of liquid chromatography using 0.1 M phosphate buffer solution (pH 6.5). The results are shown in Table 3, where the activity is expressed as molar ratio of produced hydrolyzate.

Row | Action and substrate specificity of the enzyme (hydrolysis of the ester linkage) (HCEH) | Compound | Inhibition of HCEH (novel HCEH) | Relative activity (HCEH)
1 |  | Oc1cccc2cccnc12 [8-hydroxyquinoline] | inhibited | 
2 |  | II [iodine] | inhibited | 
3 |  | [Fe+2] [Fe^++] | inhibited | 
4 | hydrolyze the ester linkage | O=C(C=Cc1ccc(O)c(O)c1)OC(C(=O)O)C(O)C(=O)O (stereo not shown) |  | 69.8%
5 |  | O=C(O)c1cc[c]([Hg][Cl])cc1 [p-CMB, p-chloromercury-benzoic acid] | inhibited | 
6 | hydrolyze the ester linkage | O=C(C=Cc1ccc(O)c(O)c1)OC1CC(O)(C(=O)O)CC(O)C1O (stereo not shown) [3-caffeoyl quinic acid] |  | 100%
7 |  | Tannic acid |  | 0%
8 | hydrolyze the ester linkage | O=C(C=Cc1ccc(O)cc1)OC(C(=O)O)C(O)C(=O)O (stereo not shown) [p-coumaroyl tartaric acid] |  | 78.3%
9 |  | [Hg+2] [Hg^++] | inhibited | 

Row | Compound | Action and substrate specificity of the enzyme (hydrolysis of the ester linkage) (HCEH) | Inhibition of HCEH (novel HCEH) | Relative activity (HCEH)
10 | COc1cc(C=CC(=O)OC(C(=O)O)C(O)C(=O)O)ccc1O (stereo not shown) [feruloyl tartaric acid] | hydrolyze the ester linkage |  | 
